Test results taken from patent publication US20090247520A1, “INHIBITORS OF ANTIGEN RECEPTOR-INDUCED NF-kappa B ACTIVATION” (The Burnham Institute for Medical Research, priority 2008, published 2009).
“Also recorded” adds a separate entry of the source.

Key:
Format in all cases: cell-based
[1] = system: PMA/Ionomycin-induced NF-κB reporter gene activity; assay: Transient transfection NF-κB-luciferase reporter assay (episomal plasmid), PMA/Ionomycin; conditions: not shown
Experimental: Dual-luciferase assay for NF-κB activity. Cells seeded in 96 well black plates were co-transfected with Renilla luciferase plasmid and NF-κB-responsive firefly luciferase reporter gene plasmid, with pcDNA3 control or plasmids encoding various desired proteins, using Lipofectamine 2000. The culture medium was aspirated and cells were washed with PBS, prior to adding 50 μL per well of Passive Lysis Buffer (Promega), followed by addition of Dual-luciferase assay reagent (Promega) and measurement of firefly and renilla luciferase activity, using a spectrofluorimeter.

[2] = system: γ-TriDAP (NOD1 agonist) stimulated IL-8 production; assay: IL-8 production by MCF7 cells stimulated with γ-TriDAP; conditions: listed as CID-2858522
Text: FIG. 1 is a flow chart of screening and counter-screenings for selective inhibitors of antigen-receptor induced NF-κB pathway. A total of 114,889 compounds were screened. From a screen of 53,280 commercially available compounds (left column), 519 hits were obtained, of which 248 reconfirmed using the same primary screening assay. […] From these 11 active compounds, one hit, CID-2858522, inhibited PMA/Ionomycin-induced production of cytokine IL-8 by the HEK293 cell line. CID-2858522 was then characterized (right column). PDB was substituted for PMA to confirm suppression of an alternative PKC activator. Pathway selectivity was assessed using panels of cell lines, starting with HEK293 cells in which each of the remaining NF-κB activation pathways was stimulated, showing inhibition only of PMA/Ionomycin-induced NF-κB reporter gene activity (panel 1). […]

[3] = system: p65-DNA binding activity induced by TNF; assay: NF-κB p65 DNA-binding activity induced by TNF; conditions: data not shown
Experimental: NF-κB DNA-binding activity assays. Nuclear extracts were prepared from 10 cm^2 plates of confluent cells using a kit (Active Motif, Carsbad, Calif.). The total protein content of nuclear fractions was quantified by the Bradford method, followed by storage at −80° C. NF-κB DNA-binding activity was measured in nuclear extracts (10 μg protein) using an immunoassay method (TransAM Kit [Active Motif]) employing 96 well plates coated with double-strand oligodeoxynucleotides containing NF-κB consensus binding site (5′-[…]-3′) and anti-p65 antibody, which was detected by secondary horseradish peroxidase (HRP)-conjugated antibody, using a calorimetric substrate with absorbance read at 450 nm within 5 minutes using a spectrophotometer, SpectraMax M5 (Molecular Devices, Sunnyvale, Calif.).

[4] = system: phosphorylation of CARMA1; assay: PMA-induced CARMA1 phosphorylation in HEK293 cells (immunoblot); conditions: CID-2858522 4 μM
Experimental: FIG. 7. CID-285852 inhibits IKKβ phosphorylation induced by PKC activators. (A) HEK293 cells were cultured in 0.5% FBS medium for 24 h and then treated with CID-2858522 (4 μM) or PKC inhibitor, Bisindolylmaleimide I (1 μM) for 2 hrs followed by PMA/Ionomycin (10 ng/mL; 5 ng/mL) for 2 h. Cell lysates were subjected to immunoprecipitation using anti-CARMA1 antibody and analyzed by immunoblotting with anti-phospho-CARMA1 antibody or anti-CARMA1 antibody. (B-E) HEK293 cells were transfected with plasmids encoding myc-CARMA1 in combination with plasmids encoding various other proteins including Caspase-8 (cys287ala) (B), HA-IKK-γ (C), HA-TAK1 (D), and TRAF6 (E). After 36 h. cells were cultured in 0.5% FBS medium for 12 h and then treated with CID-2858522 (4 μM) or Bisindolylmaleimide I (1 μM) for 2 hrs, followed by PMA/Ionomycin treatment (10 ng/mL; 5 ng/mL) for 2 hrs. Cell lysates were immunoprecipated using anti-myc antibody and analyzed by immunoblotting using anti-Caspase8 (B), anti-HA (C,D), or anti-TRAF6 (E) antibodies. […] Cell lysates were normalized for protein content and analyzed by immunoblotting using anti-FLIP and anti-alpha-tubulin antibodies. […] Cell lysates were immunoprecipitated using anti-IKK-β and analyzed by immunoblotting using anti-phospho-IKK-β antibody or anti-IKK-β antibody (as loading control). […]

Cc1cc2nc(NCCCO)n(CC(=O)c3cc(C(C)(C)C)c(O)c(C(C)(C)C)c3)c2cc1C [Compound 1, 2-(2-(3-Hydroxypropylamino)-5,6-dimethyl-1H-benzo[d]imidazol-1-yl)-1-(3,5-di-tert-butyl-4-hydroxyphenyl)ethanone]
inhibition of NF-κB reporter in transient transfection assay [1]: potently inhibited
suppression of IL-8 production, γ-TriDAP-stimulated MCF7 [2]: failed to inhibit; also recorded: did not suppress
block of p65-DNA binding activity induced by TNF [3]: did not block
effect on PMA-induced phosphorylation of CARMA1 [4]: no effect
